Results on 17 molecules are retold here after patent publication US7825160B2, “(Biphenyl) carboxylic acids and derivatives thereof” (Cellzome Limited, priority 2004, dated 2010).

In the assay the test system is γ-secretase activity. In words: Screening for γ-secretase-modulating activity in SKN neuroblastoma cells carrying APP swedish mutant. Conditions: read-out: IC50 on the γ-secretase activity, Activity range. The format is cell-based. The procedure: Screening was carried out using SKN neuroblastoma cells carrying the APP-“swedish mutant” (point mutations at position 595 and 596, numbering based on APP695) grown in DMEM/NUT-mix F12 (HAM) provided by Gibco (cat no. 31330-38) containing 5% Serum/Fe supplemented with 1% non-essential amino acids, 100 U/ml Pen/Strep.
Cells were grown to near confluency.
The screening was performed using the assay as described in Citron et al (1997) Nature Medicine 3: 67.
IC50-Values of Selected Compounds of the Invention on the γ-Secretase Activity.
As a reminder, the IC50 is the midpoint of a concentration-inhibition curve. With `CC(C)c1ccc(COc2cc(CC(=O)O)cc(-c3ccc(C(F)(F)F)cc3)c2)cc1` [II, [5-(4-Isopropyl-benzyloxy)-4′-trifluoromethyl-biphenyl-3-yl]-acetic acid], the half-maximal inhibitory concentration (IC50) lay in the range of 1 to 10 µM. Next, `CS(=O)(=O)c1ccc(COc2cc(CC(=O)O)cc(-c3ccc(C(F)(F)F)cc3)c2)cc1` [IV, [5-(4-Methanesulfonyl-benzyloxy)-4′-trifluoromethyl-biphenyl-3-yl]-acetic acid]: 10 to 100 µM. Next, `O=C(O)Cc1cc(OCc2ccccc2C(F)(F)F)cc(-c2ccc(C(F)(F)F)cc2)c1` [L, [4′-Trifluoromethyl-5-(2-trifluoromethyl-benzyloxy)-biphenyl-3-yl]-acetic acid]: 1 to 10 µM; `O=C(O)Cc1cc(OCCc2ccccc2)cc(-c2ccc(C(F)(F)F)cc2)c1` [LI, (5-Phenethyloxy-4′-trifluoromethyl-biphenyl-3-yl)-acetic acid]: 1 to 10 µM; `O=C(O)Cc1cc(OCC2CCCCO2)cc(-c2ccc(C(F)(F)F)cc2)c1` (centres unmarked) [LII, [5-(Tetrahydro-pyran-2-ylmethoxy)-4′-trifluoromethyl-biphenyl-3-yl]-acetic acid]: 100 to 300 µM.

Regarding `CN(C)C(=O)c1ccc(COc2cc(CC(=O)O)cc(-c3ccc(C(F)(F)F)cc3)c2)cc1` [LIII, [5-(4-Dimethylcarbamoyl-benzyloxy)-4′-trifluoromethyl-biphenyl-3-yl]-acetic acid], the IC50 is 100 to 300 µM.

Consider `CNC(=O)c1ccc(COc2cc(CC(=O)O)cc(-c3ccc(C(F)(F)F)cc3)c2)cc1` [LIV, [5-(4-Methylcarbamoyl-benzyloxy)-4′-trifluoromethyl-biphenyl-3-yl]-acetic acid], for which the half-inhibitory concentration (IC50) lay in the range of 100 to 300 µM. Next, `O=C(O)Cc1cc(OCc2cccc(Cl)c2)cc(-c2ccc(C(F)(F)F)cc2)c1` [LIX, [5-(3-Chloro-benzyloxy)-4′-trifluoromethyl-biphenyl-3-yl]-acetic acid]: 1 to 10 µM; `O=C(O)Cc1cc(OCc2ccc(C(=O)N3CCCC3)cc2)cc(-c2ccc(C(F)(F)F)cc2)c1` [LV, {5-[4-(Pyrrolidine-1-carbonyl)-benzyloxy]-4′-trifluoromethyl-biphenyl-3-yl}-acetic acid]: 10 to 100 µM. With `O=C(O)Cc1cc(OCc2ccc(S(=O)(=O)N3CCOCC3)cc2)cc(-c2ccc(C(F)(F)F)cc2)c1` [LVI, {5-[4-(Morpholine-4-sulfonyl)-benzyloxy]-4′-trifluoromethyl-biphenyl-3-yl}-acetic acid], the IC50 lay within 10 to 100 µM. Next, `O=C(O)Cc1cc(OCc2ccc(OC(F)(F)F)cc2)cc(-c2ccc(C(F)(F)F)cc2)c1` [LVII, [5-(4-Trifluoromethoxy-benzyloxy)-4′-trifluoromethyl-biphenyl-3-yl]-acetic acid]: 1 to 10 µM. Next, `O=C(O)Cc1cc(OCc2ccccc2Cl)cc(-c2ccc(C(F)(F)F)cc2)c1` [LVIII, [5-(2-Chloro-benzyloxy)-4′-trifluoromethyl-biphenyl-3-yl]-acetic acid]: 1 to 10 µM. Next, `Cc1ccc(COc2cc(CC(=O)O)cc(-c3ccc(C(F)(F)F)cc3)c2)cc1` [LX, [5-(4-Methyl-benzyloxy)-4′-trifluoromethyl-biphenyl-3-yl]-acetic acid]: 1 to 10 µM; `O=C(O)Cc1cc(OCc2ccccc2)cc(-c2ccccc2)c1` [VII, (5-Benzyloxy-biphenyl-3-yl)-acetic acid]: 1 to 10 µM.

Take `O=C(O)Cc1cc(OCc2ccccc2)cc(-c2cc(C(F)(F)F)cc(C(F)(F)F)c2)c1` [XI, (5-Benzyloxy-3′,5′-bis-trifluoromethyl-biphenyl-3-yl)-acetic acid]: the 50% inhibitory concentration (IC50) lay within 1 to 10 µM.

Regarding `O=C(O)Cc1cc(OCc2ccccc2)cc(-c2ccc(Cl)c(Cl)c2)c1` [XII, (5-Benzyloxy-3′,4′-dichloro-biphenyl-3-yl)-acetic acid], the IC50 was in the range of 1 to 10 µM.

On to `COc1cccc(-c2cc(CC(=O)O)cc(OCc3ccccc3)c2)c1` [XIV, (5-benzyloxy-3′-methoxy-biphenyl-3-yl)-acetic Acid], for which the IC50 was in the range of 10 to 100 µM.
